Structures can show the parent of a compound that is named as a salt.

Test [1] deals with human VAP-1 enzyme (SSAO) (Homo sapiens (Human), UniProt Q16853). Put plainly: Inhibitory effect on human VAP-1 enzyme (SSAO) activity, radiochemistry-enzymatic assay with 14C-benzylamine. Format: biochemical. The note with it: CHO-expressed human VAP-1, 14C-benzylamine 1×10^−5 mol/L. Here is the method: (§1) After homogenizing CHO (Chinese Hamster Ovary) cells stably expressing a human VAP-1 enzyme (SSAO) in a 50 mM phosphate buffer containing 1% NP-40, an enzyme suspension was obtained by taking the supernatant obtained by centrifugation. The enzyme suspension was preincubated with the compound of the present invention in a 96-well microplate at room temperature for 30 minutes. Subsequently, the enzyme suspension was incubated with ^14C-benzylamine (a final concentration of 1×10^−5 mol/L) to a final volume of […] at 37° C. for 1 hour. The enzymatic reaction was stopped by the addition of 2 mol/L (50 pt) of citric acid.
human VAP-1 enzyme (SSAO), sequence (Q16853 whole entry): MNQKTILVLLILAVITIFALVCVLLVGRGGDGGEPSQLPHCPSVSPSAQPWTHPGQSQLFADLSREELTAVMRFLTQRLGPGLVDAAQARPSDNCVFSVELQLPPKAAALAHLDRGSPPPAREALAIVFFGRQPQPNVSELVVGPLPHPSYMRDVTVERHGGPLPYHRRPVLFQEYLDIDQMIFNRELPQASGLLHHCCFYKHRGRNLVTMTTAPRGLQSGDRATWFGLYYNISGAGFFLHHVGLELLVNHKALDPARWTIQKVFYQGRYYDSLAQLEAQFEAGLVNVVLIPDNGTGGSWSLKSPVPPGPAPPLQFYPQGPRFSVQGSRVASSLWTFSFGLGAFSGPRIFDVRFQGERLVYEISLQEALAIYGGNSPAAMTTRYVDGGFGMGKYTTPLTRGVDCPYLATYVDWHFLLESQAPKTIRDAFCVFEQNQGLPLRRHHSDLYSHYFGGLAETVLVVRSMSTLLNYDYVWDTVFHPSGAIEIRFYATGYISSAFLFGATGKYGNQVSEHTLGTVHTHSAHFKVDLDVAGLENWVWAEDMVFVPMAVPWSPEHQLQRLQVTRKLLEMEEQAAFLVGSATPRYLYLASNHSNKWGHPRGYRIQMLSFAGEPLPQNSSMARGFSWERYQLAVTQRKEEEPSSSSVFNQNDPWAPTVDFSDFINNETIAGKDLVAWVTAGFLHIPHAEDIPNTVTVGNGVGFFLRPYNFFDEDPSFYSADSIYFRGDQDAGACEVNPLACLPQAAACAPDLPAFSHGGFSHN

A further test addresses rat VAP-1 enzyme (SSAO) (Rattus norvegicus (Rat), UniProt O08590). Put plainly: Inhibitory effect on rat VAP-1 enzyme (SSAO) activity, radiochemistry-enzymatic assay with 14C-benzylamine. The note with it: CHO-expressed rat VAP-1, 14C-benzylamine 1×10^−5 mol/L. Format: biochemical. How it is done: as §1, with “rat” for “human”, “μL)” for “pt)”, “acid. The oxidation products were extracted directly in a 200 μL toluene scintillator, and the radioactivity was measured with a scintillation spectrometer.” for “acid.”

The test system of test [2] is VAP-1 enzyme (SSAO) activity in rat plasma. Put plainly: Inhibitory effect on rat VAP-1 enzyme (SSAO) activity in rat plasma after oral administration. It is filed as in vivo, Wistar male rats. The following applies: rat plasma VAP-1 activity, oral 0.3 mg/kg; for Inhibition Ratio (%) 1 h: 1 h after administration; for Inhibition Ratio (%) 3 h: 3 h after administration; for Inhibition Ratio (%) 6 h: 6 h after administration; for Inhibition Ratio (%) 24 h: 24 h after administration; for Inhibition Ratio (%) 12 h: 12 h after administration. How it is done: Eight-week to twelve-week Wistar male rats were fasted for 20 hours, and orally administered with a test drug ([…]). Heparin blood collection from the tail vein was performed immediately before the administration, and at 1 h, 3 h, 6 h, 12 h, or 24 h after the administration. The resulting blood was subjected to centrifugation at 14000 rpm for 5 minutes to separate plasma, and the VAP-1 enzyme activity in the resulting plasma was measured by a radio-enzyme assay method.
For the radio-enzyme assay method, ^14C-benzylamine which is a synthetic substrate (10 μM) was reacted with the resulting plasma at 37° C., and the resulting metabolite was extracted with a mixture of toluene/ethyl acetate. The radioactivity was measured and taken as a VAP-1 enzyme activity in the plasma. The effect of the test drug was calculated from the inhibitory ratio (%) of the VAP-1 activity after the administration of the test drug relative to the VAP-1 activity in the plasma immediately before the administration.

rat VAP-1 enzyme (SSAO), sequence (O08590 whole entry): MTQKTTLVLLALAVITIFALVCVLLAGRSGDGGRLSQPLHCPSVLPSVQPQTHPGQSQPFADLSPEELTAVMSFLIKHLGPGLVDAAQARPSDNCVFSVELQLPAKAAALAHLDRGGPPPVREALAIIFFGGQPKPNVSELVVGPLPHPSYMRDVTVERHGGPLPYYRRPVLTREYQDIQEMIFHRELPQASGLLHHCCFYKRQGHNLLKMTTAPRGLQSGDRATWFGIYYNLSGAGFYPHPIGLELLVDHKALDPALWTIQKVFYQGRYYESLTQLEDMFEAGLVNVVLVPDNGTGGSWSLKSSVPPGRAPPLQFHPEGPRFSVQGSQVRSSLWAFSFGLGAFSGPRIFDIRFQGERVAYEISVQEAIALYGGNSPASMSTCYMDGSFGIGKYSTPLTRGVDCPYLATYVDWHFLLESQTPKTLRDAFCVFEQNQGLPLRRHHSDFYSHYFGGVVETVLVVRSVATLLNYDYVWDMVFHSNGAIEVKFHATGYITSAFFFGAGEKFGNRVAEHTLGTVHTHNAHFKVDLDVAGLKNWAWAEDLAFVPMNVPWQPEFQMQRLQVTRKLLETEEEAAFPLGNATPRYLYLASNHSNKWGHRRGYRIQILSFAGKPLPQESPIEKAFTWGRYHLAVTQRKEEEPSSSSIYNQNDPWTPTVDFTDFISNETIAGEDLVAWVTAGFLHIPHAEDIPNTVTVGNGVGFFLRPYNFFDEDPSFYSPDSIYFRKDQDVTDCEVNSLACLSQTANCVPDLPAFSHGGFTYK

Take `N=C(N)NC(=O)OCc1cccc(-c2cnc(OCC3CCN(C(=O)c4cccnc4)CC3)nc2)c1F` [Example 29]: in test [1], half-maximal inhibition (IC50) required 7.2 nM. For the same molecule, it took 1.9 nM to reach half-maximal inhibition against rat VAP-1 enzyme (SSAO) (IC50). For the same molecule, in test [2], the “Inhibition Ratio (%) 1 h” value was found to be 46%, the “Inhibition Ratio (%) 3 h” value was found to be 60%, the “Inhibition Ratio (%) 6 h” value is given as 58% and the “Inhibition Ratio (%) 24 h” value amounted to 22%.
Turning to `N=C(N)NC(=O)OCc1cccc(N2CCC(c3ccncc3)CC2)c1F` [Example 52], in test [1], the half-inhibitory concentration (IC50) (in general, the concentration that inhibits the measured activity by half) came out at 23 nM. This molecule registered a concentration for half-maximal inhibition (IC50) at rat VAP-1 enzyme (SSAO) of 1.7 nM. Moreover, in test [2], the “Inhibition Ratio (%) 1 h” value was 90%, the “Inhibition Ratio (%) 3 h” value worked out at 68%, the “Inhibition Ratio (%) 6 h” value amounted to 52% and the “Inhibition Ratio (%) 12 h” value stood at 37%.
Take `COC1CN(c2ncc(-c3cccc(COC(=O)NC(=N)N)c3F)cn2)C1` [Example 63]: in test [1], the IC50 turned out to be 3.4 nM. Further, at rat VAP-1 enzyme (SSAO), the IC50 was 1.1 nM. Besides, in test [2], the “Inhibition Ratio (%) 1 h” value is 83%, the “Inhibition Ratio (%) 3 h” value came to 87%, the “Inhibition Ratio (%) 6 h” value stood at 80% and the “Inhibition Ratio (%) 12 h” value is 68%.
Molecule `N=C(N)NC(=O)OCc1cccc(-c2cnc(OCC3CCN(C(=O)C4CC4)CC3)nc2)c1F` [Example 74] registered an IC50 in test [1] of 5.3 nM. In addition, half-maximal inhibition at rat VAP-1 enzyme (SSAO) (IC50) required 1.8 nM. Moreover, in test [2], the “Inhibition Ratio (%) 1 h” value is given as 79%, the “Inhibition Ratio (%) 3 h” value turned out to be 74%, the “Inhibition Ratio (%) 6 h” value is recorded as 81% and the “Inhibition Ratio (%) 24 h” value is given as 40%.
Take `Cl.N=C(N)NC(=O)OCc1cccc(-c2cnc(N3CCOCC3)nc2)c1F` [Example 81]: 9.7 nM corresponded to half-maximal inhibition in test [1] (IC50). The IC50 against rat VAP-1 enzyme (SSAO) was 3.9 nM. Further, in test [2], the “Inhibition Ratio (%) 1 h” value turned out to be 78%, the “Inhibition Ratio (%) 3 h” value was 78%, the “Inhibition Ratio (%) 6 h” value was 78% and the “Inhibition Ratio (%) 12 h” value worked out at 53%.
Molecule `CC(=O)Nc1nc(CCc2cccc(CNC(=O)NC(=N)N)c2)cs1.Cl` [Example 83] registered an IC50 in test [1] of 25 nM. Also, 1.9 nM corresponded to half-maximal inhibition against rat VAP-1 enzyme (SSAO) (IC50). For the same molecule, in test [2], the “Inhibition Ratio (%) 1 h” value is 34%, the “Inhibition Ratio (%) 3 h” value came to 66%, the “Inhibition Ratio (%) 6 h” value came out at 86% and the “Inhibition Ratio (%) 12 h” value was determined as 53%.
For `CC(=O)N1CCC(COc2ncc(-c3cccc(CNC(=O)NC(=N)N)c3F)cn2)CC1` [Example 105], in test [1], the midpoint of inhibition, the IC50, lay at 14 nM. The molecule also gave an IC50 on rat VAP-1 enzyme (SSAO) of 2.6 nM. In test [2], the “Inhibition Ratio (%) 1 h” value is listed as 22%, the “Inhibition Ratio (%) 3 h” value is 38%, the “Inhibition Ratio (%) 6 h” value was determined as 31% and the “Inhibition Ratio (%) 24 h” value is given as 6%.
`CC1(O)CCN(c2ncc(N3CCN(c4cccc(COC(=O)NC(=N)N)c4F)CC3)cn2)CC1` [Example 110] yielded an IC50 in test [1] of 32 nM. At rat VAP-1 enzyme (SSAO), the midpoint of inhibition, the IC50, lay at 1.4 nM. Also, in test [2], the “Inhibition Ratio (%) 1 h” value was found to be 96%, the “Inhibition Ratio (%) 3 h” value was found to be 96%, the “Inhibition Ratio (%) 6 h” value is listed as 95% and the “Inhibition Ratio (%) 24 h” value turned out to be 75%.
The molecule `N=C(N)NC(=O)OCc1cccc(N2CCN(c3cnc(N4CC[C@@H](F)C4)nc3)CC2)c1F` [Example 118] registered an IC50 in test [1] of 29 nM. The molecule further showed an IC50 against rat VAP-1 enzyme (SSAO) of 1.7 nM. For the same molecule, in test [2], the “Inhibition Ratio (%) 1 h” value came to 87%, the “Inhibition Ratio (%) 3 h” value came out at 86%, the “Inhibition Ratio (%) 6 h” value came to 88% and the “Inhibition Ratio (%) 24 h” value came out at 59%.
With `COc1ncc(N2CCN(c3cccc(COC(=O)NC(=N)N)c3F)CC2)cn1` [Example 126], 15 nM corresponded to half-maximal inhibition in test [1] (IC50). This molecule had a half-maximal inhibitory concentration (IC50) at rat VAP-1 enzyme (SSAO) of 0.53 nM. In addition, in test [2], the “Inhibition Ratio (%) 1 h” value turned out to be 98%, the “Inhibition Ratio (%) 3 h” value came to 97%, the “Inhibition Ratio (%) 6 h” value turned out to be 97% and the “Inhibition Ratio (%) 24 h” value was found to be 69%.
In turn, `CCS(=O)(=O)N1CCN(c2cccc(COC(=O)NC(=N)N)c2F)CC1` [Example 157] displayed a concentration for half-maximal inhibition (IC50) in test [1] of 49 nM. Moreover, the 50% inhibitory concentration (IC50) on rat VAP-1 enzyme (SSAO) is 2.1 nM. For the same molecule, in test [2], the “Inhibition Ratio (%) 1 h” value came out at 95%, the “Inhibition Ratio (%) 3 h” value was found to be 91%, the “Inhibition Ratio (%) 6 h” value came out at 80% and the “Inhibition Ratio (%) 24 h” value turned out to be 39%.
Take `N=C(N)NC(=O)OCc1cccc(-c2cnc(N3CC[C@H](F)C3)nc2)c1` [Example 178]: in test [1], the concentration for half-maximal inhibition (IC50) was determined as 33 nM. Also, the IC50 at rat VAP-1 enzyme (SSAO) is 4.4 nM. For the same molecule, in test [2], the “Inhibition Ratio (%) 1 h” value is 63%, the “Inhibition Ratio (%) 3 h” value worked out at 73%, the “Inhibition Ratio (%) 6 h” value was determined as 67% and the “Inhibition Ratio (%) 12 h” value was 80%.
Regarding `CC(=O)N1CCC(OC2CCN(c3cccc(COC(=O)NC(=N)N)c3F)CC2)CC1` [Example 220], the IC50 in test [1] amounted to 25 nM. On rat VAP-1 enzyme (SSAO), the 50% inhibitory concentration (IC50) was 1 nM. In test [2], the “Inhibition Ratio (%) 1 h” value is recorded as 80%, the “Inhibition Ratio (%) 3 h” value is recorded as 80%, the “Inhibition Ratio (%) 6 h” value worked out at 84% and the “Inhibition Ratio (%) 24 h” value came out at 27%.
With `N=C(N)NC(=O)OCc1cccc(N2CCN(C(=O)CC3CCOCC3)CC2)c1F` [Example 273], the IC50 in test [1] worked out at 19 nM. Further, the IC50 against rat VAP-1 enzyme (SSAO) is 0.95 nM. Moreover, in test [2], the “Inhibition Ratio (%) 1 h” value is 55%, the “Inhibition Ratio (%) 3 h” value was found to be 74%, the “Inhibition Ratio (%) 6 h” value was determined as 54% and the “Inhibition Ratio (%) 24 h” value is listed as 19%.
With `N=C(N)NC(=O)OCc1cccc(N2CCN(c3cccnc3)CC2)c1F` [Example 293], on rat VAP-1 enzyme (SSAO), the IC50 stood at 0.97 nM.
The molecule `Cc1ccc(N2CCN(c3cccc(COC(=O)NC(=N)N)c3F)CC2)cn1` [Example 300] yielded a concentration for half-maximal inhibition (IC50) in test [1] of 19 nM. The same molecule returned an IC50 against rat VAP-1 enzyme (SSAO) of 1.7 nM. In addition, in test [2], the “Inhibition Ratio (%) 1 h” value came to 92%, the “Inhibition Ratio (%) 3 h” value is recorded as 93%, the “Inhibition Ratio (%) 6 h” value is 88% and the “Inhibition Ratio (%) 24 h” value was found to be 85%.
`N=C(N)NC(=O)OCc1cccc(N2CCN(c3cccnc3)C(=O)C2)c1F` [Example 304] had an IC50 in test [1] of 34 nM. The same molecule displayed a half-maximal inhibitory concentration (IC50) at rat VAP-1 enzyme (SSAO) of 6.6 nM. In addition, in test [2], the “Inhibition Ratio (%) 1 h” value came to 52%, the “Inhibition Ratio (%) 3 h” value is 56%, the “Inhibition Ratio (%) 6 h” value is listed as 56% and the “Inhibition Ratio (%) 24 h” value was 18%.
With `COC1CN(c2ncc(N3CCN(c4cccc(COC(=O)NC(=N)N)c4F)CC3)cn2)C1` [Example 316, 2-fluoro-3-{4-[2-(3-methoxyazetidin-1-yl)pyrimidin-5-yl]piperazin-1-yl}benzyl carbamimidoylcarbamate trihydrochloride], the concentration for half-maximal inhibition (IC50) in test [1] stood at 11 nM. In addition, the IC50 against rat VAP-1 enzyme (SSAO) is 0.9 nM. In test [2], the “Inhibition Ratio (%) 1 h” value is listed as 91%, the “Inhibition Ratio (%) 3 h” value is given as 99%, the “Inhibition Ratio (%) 6 h” value is 98% and the “Inhibition Ratio (%) 12 h” value was 91%.
As for `N=C(N)NC(=O)NCc1cccc(-c2cnc(N3CCOCC3)nc2)c1` [Example 322], the midpoint of inhibition in test [1], the IC50, lay at 51 nM. This molecule also had a concentration for half-maximal inhibition (IC50) on rat VAP-1 enzyme (SSAO) of 22 nM. Besides, in test [2], the “Inhibition Ratio (%) 1 h” value came out at 40%, the “Inhibition Ratio (%) 3 h” value was found to be 55%, the “Inhibition Ratio (%) 6 h” value stood at 50% and the “Inhibition Ratio (%) 12 h” value stood at 38%.
In test [1], `N=C(N)NC(=O)OCc1cccc(-c2cnc(N3CCN(c4ccc(CCC(=O)O)cc4)CC3)nc2)c1F` [Example 335] gave a concentration for half-maximal inhibition (IC50) of 11 nM. On rat VAP-1 enzyme (SSAO), this molecule showed a half-maximal inhibitory concentration (IC50) of 2 nM. In test [2], the “Inhibition Ratio (%) 1 h” value was 82%, the “Inhibition Ratio (%) 3 h” value was 84%, the “Inhibition Ratio (%) 6 h” value was determined as 86% and the “Inhibition Ratio (%) 12 h” value was 83%.
`CCC(=O)N1CCC(OC2CN(c3cccc(COC(=O)NC(=N)N)c3F)C2)CC1` [Example 551] came in with an IC50 in test [1] of 14 nM. In addition, at rat VAP-1 enzyme (SSAO), the IC50 is 1.8 nM. In test [2], the “Inhibition Ratio (%) 1 h” value is listed as 68%, the “Inhibition Ratio (%) 3 h” value turned out to be 59%, the “Inhibition Ratio (%) 6 h” value is on record as 51% and the “Inhibition Ratio (%) 24 h” value amounted to 5%.
As to `COCc1ccc(OC2CN(c3cccc(COC(=O)NC(=N)N)c3F)C2)cn1` [Example 553], in test [1], the midpoint of inhibition, the IC50, lay at 20 nM. At rat VAP-1 enzyme (SSAO), this molecule registered an IC50 of 3 nM. In test [2], the “Inhibition Ratio (%) 1 h” value is listed as 67%, the “Inhibition Ratio (%) 3 h” value is on record as 57%, the “Inhibition Ratio (%) 6 h” value is 50% and the “Inhibition Ratio (%) 24 h” value is given as 40%.

Source of the values: patent publication US9556160B2, “Guanidine compound” (Astellas Pharma Inc., priority 2011, dated 2017).
